Laboratory results published in PubChem BioAssay AID328 (DTP/NCI, 2004).
“And” between values parts separate entries of the source, which are not always exact repeats. Equal entries are not always repeated. Toxic doses and inconclusive results are not listed.

Tested on: BDF1 mice, P388 leukemia ip, median survival T/C
Assay: NCI In Vivo Anticancer Drug Screen. Data for tumor model P388 Leukemia (intraperitoneal) in B6D2F1 (BDF1) mice
Conditions: endpoint: median survival time, higher = longer survival
In short: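 In tumour-bearing mice, survival after compound treatment is set against the vehicle group and given as a quotient.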

[1] = dose: 100.0 mg/kg/injection, schedule: Q04DX003 (ip), vehicle: Klucel (hydroxypropylcellulose) (HPC)
[2] = dose: 200.0 mg/kg/injection, schedule: Q04DX003 (ip), vehicle: Klucel (hydroxypropylcellulose) (HPC)
[3] = dose: 400.0 mg/kg/injection, schedule: Q04DX003 (ip), vehicle: Klucel (hydroxypropylcellulose) (HPC)
[4] = dose: 50.0 mg/kg/injection, schedule: Q01DX009 (ip), vehicle: saline with Tween-80
[5] = dose: 100.0 mg/kg/injection, schedule: Q01DX009 (ip), vehicle: saline with Tween-80
[6] = dose: 50.0 mg/kg/injection, schedule: Q04DX003 (ip), vehicle: saline
[7] = dose: 100.0 mg/kg/injection, schedule: Q04DX003 (ip), vehicle: saline

SMILES: CCCCCCCC(=O)NC1CC(O[C@H]2C[C@](O)(C(=O)CO)Cc3c(O)c4c(c(O)c32)C(=O)c2c(OC)cccc2C4=O)OC(C)C1O (some centres undefined)
- T/C (dose: 0.78 mg/kg/injection, schedule: Q01DX009 (ip), vehicle: water): 104 % of control
- T/C (dose: 6.25 mg/kg/injection, schedule: Q01DX009 (ip), vehicle: water): 150 % of control
- T/C (dose: 12.5 mg/kg/injection, schedule: Q01DX009 (ip), vehicle: water): 156 % of control
- T/C (dose: 18.8 mg/kg/injection, schedule: Q04DX003 (ip), vehicle: water): 106 % of control
- T/C (dose: 25.0 mg/kg/injection, schedule: Q01DX009 (ip), vehicle: water): 177 % of control
- T/C (dose: 37.5 mg/kg/injection, schedule: Q04DX003 (ip), vehicle: water): 109 % of control
- T/C (dose: 75.0 mg/kg/injection, schedule: Q04DX003 (ip), vehicle: water): 104 % of control and 123 % of control
- T/C (dose: 150.0 mg/kg/injection, schedule: Q04DX003 (ip), vehicle: water): 119 % of control

SMILES: CN(C)c1ccc(C(/C=N\O)(c2ccc(N(C)C)cc2)c2ccc(N(C)C)cc2)cc1
- T/C [1]: 104 % of control
- T/C [2]: 100 % of control
- T/C [3]: 109 % of control

SMILES: CC1CN1P(=O)(N1CC2CCC(CC2)C1)N1CC1C (centres undefined)
- T/C (dose: 14.0 mg/kg/injection, schedule: Q01DX009 (ip), vehicle: saline with Tween-80): 113 % of control
- T/C (dose: 21.0 mg/kg/injection, schedule: Q01DX009 (ip), vehicle: saline with Tween-80): 122 % of control
- T/C (dose: 33.0 mg/kg/injection, schedule: Q01DX009 (ip), vehicle: saline with Tween-80): 159 % of control
- T/C [4]: 154 % of control
- T/C [5]: 86 % of control

SMILES: COC1/C=C\OC2(C)Oc3c(C)c(O)c4c(c3C2=O)C(=O)C=C(NC(=O)C(C)=C/C=C\C(C)C(O)C(C)C2OC(C)(C)OC(C1C)C2C)C4=O (centres undefined)
- T/C [4]: 103 % of control
- T/C [5]: 100 % of control
- T/C (dose: 200.0 mg/kg/injection, schedule: Q01DX009 (ip), vehicle: saline with Tween-80): 93 % of control

SMILES: Cc1c(C)c(CO)c(C)c(C)c1CO
- T/C (dose: 8.0 mg/kg/injection, schedule: Q01DX009 (ip), vehicle: Klucel (hydroxypropylcellulose) (HPC)): 96 % of control
- T/C (dose: 12.0 mg/kg/injection, schedule: Q01DX009 (ip), vehicle: Klucel (hydroxypropylcellulose) (HPC)): 89 % of control
- T/C (dose: 12.0 mg/kg/injection, schedule: Q04DX003 (ip), vehicle: Klucel (hydroxypropylcellulose) (HPC)): 104 % of control
- T/C (dose: 18.0 mg/kg/injection, schedule: Q01DX009 (ip), vehicle: Klucel (hydroxypropylcellulose) (HPC)): 96 % of control
- T/C (dose: 25.0 mg/kg/injection, schedule: Q04DX003 (ip), vehicle: Klucel (hydroxypropylcellulose) (HPC)): 95 % of control
- T/C (dose: 50.0 mg/kg/injection, schedule: Q04DX003 (ip), vehicle: Klucel (hydroxypropylcellulose) (HPC)): 104 % of control

SMILES: Clc1ccc(N=Cc2ccc(C=Nc3ccc(Cl)c(Cl)c3)cc2)cc1Cl
- T/C [1]: 100 % of control
- T/C [2]: 90 % of control
- T/C [3]: 100 % of control

SMILES: CCCCCCC(=O)CCCC(C)CCCC(C)C (centres undefined)
- T/C (dose: 100.0 mg/kg/injection, schedule: Q01DX009 (ip), vehicle: Klucel (hydroxypropylcellulose) (HPC)): 100 % of control
- T/C (dose: 200.0 mg/kg/injection, schedule: Q01DX009 (ip), vehicle: Klucel (hydroxypropylcellulose) (HPC)): 109 % of control
- T/C (dose: 400.0 mg/kg/injection, schedule: Q01DX009 (ip), vehicle: Klucel (hydroxypropylcellulose) (HPC)): 118 % of control

SMILES: COc1cc2ccc3ccncc3c2cc1OC
- T/C (dose: 12.5 mg/kg/injection, schedule: Q01DX009 (ip), vehicle: saline): 95 % of control
- T/C (dose: 25.0 mg/kg/injection, schedule: Q01DX009 (ip), vehicle: saline): 100 % of control
- T/C (dose: 25.0 mg/kg/injection, schedule: Q04DX003 (ip), vehicle: saline): 95 % of control
- T/C (dose: 50.0 mg/kg/injection, schedule: Q01DX009 (ip), vehicle: saline): 90 % of control
- T/C [6]: 113 % of control
- T/C [7]: 86 % of control

SMILES: O=c1[nH]cc(N(CCCl)CCCl)c(=O)[nH]1
- T/C (dose: 0.38 mg/kg/injection, schedule: Q01DX010 (ip), vehicle: saline): 218 % of control
- T/C (dose: 0.75 mg/kg/injection, schedule: Q01DX010 (ip), vehicle: saline): 300 % of control
- T/C (dose: 1.5 mg/kg/injection, schedule: Q01DX010 (ip), vehicle: saline): 204 % of control

SMILES: CN(C)/C=N/n1cnc2c(ncn2C2OC(CO)C(O)C2O)c1=O (centres undefined)
- T/C [6]: 108 % of control
- T/C [7]: 108 % of control
- T/C (dose: 200.0 mg/kg/injection, schedule: Q04DX003 (ip), vehicle: saline): 111 % of control
- T/C (dose: 400.0 mg/kg/injection, schedule: Q04DX003 (ip), vehicle: saline): 101 % of control
